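Cultured in 96-well plates, cells were exposed to test compound for 48 hours across five concentrations. Here, GI50 denotes the concentration required for 50% inhibition of growth.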 Active and inactive are the calls of the source. No stated cut-off is given here; in the data, active = GI50 up to about 1.1 µM and inactive = higher.
What was measured:
Assay in all cases: NCI anticancer screen, dose series, 48 h
[1] = system: 786-0
[2] = system: CCRF-CEM
[3] = system: DU-145
[4] = system: HCC 2998
[5] = system: HCT-116
[6] = system: HOP-92
[7] = system: HT-29
[8] = system: MCF7
[9] = system: MDA-MB-231
[10] = system: Malme-3M
[11] = system: NCI-H23
[12] = system: OVCAR-8
[13] = system: RPMI-8226
[14] = system: SF-539
[15] = system: SK-MEL-28
[16] = system: SK-MEL-5
[17] = system: SNB-19
[18] = system: TK-10
[19] = system: UACC-62
[20] = system: OVCAR-4

Row | Structure (SMILES) | GI50 [1] | GI50 [2] | GI50 [3] | GI50 [4] | GI50 [5] | GI50 [6] | GI50 [7] | GI50 [8] | GI50 [9] | GI50 [10] | GI50 [11] | GI50 [12] | GI50 [13] | GI50 [14] | GI50 [15] | GI50 [16] | GI50 [17] | GI50 [18] | GI50 [19] | GI50 [20]
1 | O=C(NCCN1CCOCC1)c1cn2c(ccc3sc4ccccc4c(=O)c32)n1 | 13.6 µM (inactive) | > 10 µM (inactive) | > 100 µM (inactive) | 10.1 µM (inactive) | 5.22 µM (inactive) | 12.8 µM (inactive) | 6.56 µM (inactive) | 7.08 µM (inactive) | 5.35 µM (inactive) | 22.7 µM (inactive) | 20.7 µM (inactive) | > 100 µM (inactive) | 8.24 µM (inactive) | 45.3 µM (inactive) | 46.9 µM (inactive) | 9.77 µM (inactive) | 87.5 µM (inactive) | > 100 µM (inactive) | – | –
2 | O=C(CNc1ccc(Cl)cc1Cl)NC1C=Cc2ccc(S(=O)(=O)Nc3ccc(Cl)cc3Cl)cc2C1=O (configuration not stated) | > 100 µM (inactive) | 9.18 µM (inactive) | > 100 µM (inactive) | > 100 µM (inactive) | > 100 µM (inactive) | > 100 µM (inactive) | > 100 µM (inactive) | > 100 µM (inactive) | > 100 µM (inactive) | > 100 µM (inactive) | > 100 µM (inactive) | > 100 µM (inactive) | 11 µM (inactive) | > 100 µM (inactive) | > 100 µM (inactive) | – | > 100 µM (inactive) | > 100 µM (inactive) | > 100 µM (inactive) | –
3 | CC(C)CCC/C(CBr)=C(\Cl)CCl | 1.85 µM (inactive) | 0.123 µM (active) | 5.52 µM (inactive) | 8.59 µM (inactive) | 2.69 µM (inactive) | 2.14 µM (inactive) | 2.37 µM (inactive) | 4.08 µM (inactive) | 2.81 µM (inactive) | 2.59 µM (inactive) | 2.4 µM (inactive) | 1.56 µM (inactive) | 0.948 µM (active) | 10.4 µM (inactive) | 2.07 µM (inactive) | 1.95 µM (inactive) | 14.5 µM (inactive) | 1.88 µM (inactive) | – | 1.48 µM (inactive)
4 | CC(C)OCC(O)COc1ccc2ccc(=O)oc2c1 (configuration not stated) | > 100 µM (inactive) | > 100 µM (inactive) | > 100 µM (inactive) | > 100 µM (inactive) | > 100 µM (inactive) | > 100 µM (inactive) | > 100 µM (inactive) | > 100 µM (inactive) | > 100 µM (inactive) | > 100 µM (inactive) | > 100 µM (inactive) | > 100 µM (inactive) | > 100 µM (inactive) | – | > 100 µM (inactive) | > 100 µM (inactive) | > 100 µM (inactive) | > 100 µM (inactive) | > 100 µM (inactive) | > 100 µM (inactive)
5 | CCN(CC)CCOCCn1c2c(c3ccccc31)CCCC2 | 16.2 µM (inactive) | 18.8 µM (inactive) | 30.9 µM (inactive) | 16.8 µM (inactive) | 15.8 µM (inactive) | 20.9 µM (inactive) | 23.7 µM (inactive) | 18.2 µM (inactive) | 18 µM (inactive) | 15.6 µM (inactive) | 35.8 µM (inactive) | 33.7 µM (inactive) | 20.4 µM (inactive) | 16.6 µM (inactive) | 17 µM (inactive) | 13.5 µM (inactive) | – | 19.1 µM (inactive) | 17 µM (inactive) | 26 µM (inactive)
6 | Nc1nc(S)nc2snnc12 | > 100 µM (inactive) | > 100 µM (inactive) | > 100 µM (inactive) | > 100 µM (inactive) | > 100 µM (inactive) | > 100 µM (inactive) | > 100 µM (inactive) | > 100 µM (inactive) | > 100 µM (inactive) | > 100 µM (inactive) | > 100 µM (inactive) | > 100 µM (inactive) | > 100 µM (inactive) | > 100 µM (inactive) | > 100 µM (inactive) | > 100 µM (inactive) | > 100 µM (inactive) | > 100 µM (inactive) | > 100 µM (inactive) | –
7 | O=Cc1ccc2ccocc1-2 | > 100 µM (inactive) | > 100 µM (inactive) | > 100 µM (inactive) | > 100 µM (inactive) | > 100 µM (inactive) | > 100 µM (inactive) | > 100 µM (inactive) | > 100 µM (inactive) | > 100 µM (inactive) | – | > 100 µM (inactive) | > 100 µM (inactive) | > 100 µM (inactive) | > 100 µM (inactive) | – | > 100 µM (inactive) | > 100 µM (inactive) | > 100 µM (inactive) | > 100 µM (inactive) | > 100 µM (inactive)
8 | COc1ccc(C(C)NNC(=O)c2cc[n+]([BH2-]C#N)cc2)c(OC)c1 (configuration not stated) | > 100 µM (inactive) | > 100 µM (inactive) | > 100 µM (inactive) | > 100 µM (inactive) | – | > 100 µM (inactive) | – | > 100 µM (inactive) | > 100 µM (inactive) | > 100 µM (inactive) | – | > 100 µM (inactive) | > 100 µM (inactive) | > 100 µM (inactive) | > 100 µM (inactive) | > 100 µM (inactive) | > 100 µM (inactive) | > 100 µM (inactive) | > 100 µM (inactive) | 69.5 µM (inactive)
9 | CCOC(=O)C(NC(=O)CC)(Nc1ccc(S(=O)(=O)Nc2onc(C)c2C)cc1)C(F)(F)F (configuration not stated) | > 100 µM (inactive) | > 100 µM (inactive) | > 100 µM (inactive) | > 100 µM (inactive) | > 100 µM (inactive) | > 100 µM (inactive) | > 100 µM (inactive) | > 100 µM (inactive) | > 100 µM (inactive) | > 100 µM (inactive) | > 100 µM (inactive) | > 100 µM (inactive) | > 100 µM (inactive) | > 100 µM (inactive) | > 100 µM (inactive) | > 100 µM (inactive) | > 100 µM (inactive) | – | > 100 µM (inactive) | > 100 µM (inactive)
10 | CCOc1cnc(C(O)(c2ccccc2)c2ccccc2)o1 | > 100 µM (inactive) | > 100 µM (inactive) | > 100 µM (inactive) | > 100 µM (inactive) | > 100 µM (inactive) | 58.9 µM (inactive) | > 100 µM (inactive) | > 100 µM (inactive) | > 100 µM (inactive) | > 100 µM (inactive) | > 100 µM (inactive) | > 100 µM (inactive) | > 100 µM (inactive) | > 100 µM (inactive) | > 100 µM (inactive) | > 100 µM (inactive) | > 100 µM (inactive) | – | > 100 µM (inactive) | > 100 µM (inactive)
11 | CC1(C)CCC[C@]2(C)[C@@H]1CC[C@@]13O[C@@H]1C1=C(CO)C(=O)OC1=C[C@@H]23 | 14.3 µM (inactive) | – | 18.4 µM (inactive) | 18.9 µM (inactive) | 1.44 µM (inactive) | 15.4 µM (inactive) | 14 µM (inactive) | 26.4 µM (inactive) | 31.1 µM (inactive) | 1.1 µM (active) | 17.5 µM (inactive) | – | 21.1 µM (inactive) | – | 16.6 µM (inactive) | 15.5 µM (inactive) | 13.6 µM (inactive) | 25.2 µM (inactive) | 13.5 µM (inactive) | 19.2 µM (inactive)
12 | O=C(O[C@H]1[C@@H](O)[C@H](n2cnc3c(Cl)ncnc32)O[C@@H]1COC(c1ccccc1)(c1ccccc1)c1ccccc1)c1ccccc1 | 14.9 µM (inactive) | 3.55 µM (inactive) | 1.91 µM (inactive) | 16.1 µM (inactive) | 40.9 µM (inactive) | 15.8 µM (inactive) | 18.5 µM (inactive) | 4.91 µM (inactive) | 21.2 µM (inactive) | – | 20.4 µM (inactive) | 25.4 µM (inactive) | 2.25 µM (inactive) | 20 µM (inactive) | 46.3 µM (inactive) | 8.47 µM (inactive) | 39.3 µM (inactive) | 45.2 µM (inactive) | 39.5 µM (inactive) | 30.3 µM (inactive)
13 | [N-]=[N+]=NC1(N=[N+]=[N-])C(=O)NN=C(c2ccccc2)C1=O (configuration not stated) | > 100 µM (inactive) | 32.2 µM (inactive) | > 100 µM (inactive) | > 100 µM (inactive) | 16.8 µM (inactive) | > 100 µM (inactive) | > 100 µM (inactive) | 62.7 µM (inactive) | > 100 µM (inactive) | 7.18 µM (inactive) | > 100 µM (inactive) | 82.2 µM (inactive) | 41.3 µM (inactive) | > 100 µM (inactive) | 16.3 µM (inactive) | – | – | > 100 µM (inactive) | 57.7 µM (inactive) | 57.4 µM (inactive)
14 | C/C(=N\N=C(/S)SCc1ccccc1)c1ccccn1 | < 0.01 µM (active) | < 0.01 µM (active) | 1.54 µM (inactive) | 0.0476 µM (active) | < 0.01 µM (active) | < 0.0105 µM (active) | < 0.01 µM (active) | < 0.01 µM (active) | < 0.01 µM (active) | 0.665 µM (active) | < 0.01 µM (active) | < 0.01 µM (active) | < 0.01 µM (active) | 0.303 µM (active) | – | 0.0635 µM (active) | 2.97 µM (inactive) | 0.339 µM (active) | 0.463 µM (active) | < 0.01 µM (active)
15 | CCCN(CCC)C(=S)N/N=C/c1ccccn1 | < 0.01 µM (active) | < 0.01 µM (active) | 0.143 µM (active) | 0.398 µM (active) | < 0.01 µM (active) | 0.169 µM (active) | < 0.01 µM (active) | < 0.01 µM (active) | < 0.01 µM (active) | 0.0463 µM (active) | < 0.01 µM (active) | < 0.01 µM (active) | < 0.01 µM (active) | 0.118 µM (active) | 0.17 µM (active) | < 0.0173 µM (active) | 0.282 µM (active) | 0.0203 µM (active) | – | < 0.01 µM (active)
